Results taken from patent US20230174523A1, “BENZENESULFONAMIDE DERIVATIVES AS TRAP1 MODULATORS AND USES THEREOF” (Amathus Therapeutics, Inc., priority 2020, published 2023).
pEC50: −log10 of the molar value.

Biological target: T1, TRAP1 enzyme (Homo sapiens, UniProt Q12931)
T1 sequence (Q12931 60-704): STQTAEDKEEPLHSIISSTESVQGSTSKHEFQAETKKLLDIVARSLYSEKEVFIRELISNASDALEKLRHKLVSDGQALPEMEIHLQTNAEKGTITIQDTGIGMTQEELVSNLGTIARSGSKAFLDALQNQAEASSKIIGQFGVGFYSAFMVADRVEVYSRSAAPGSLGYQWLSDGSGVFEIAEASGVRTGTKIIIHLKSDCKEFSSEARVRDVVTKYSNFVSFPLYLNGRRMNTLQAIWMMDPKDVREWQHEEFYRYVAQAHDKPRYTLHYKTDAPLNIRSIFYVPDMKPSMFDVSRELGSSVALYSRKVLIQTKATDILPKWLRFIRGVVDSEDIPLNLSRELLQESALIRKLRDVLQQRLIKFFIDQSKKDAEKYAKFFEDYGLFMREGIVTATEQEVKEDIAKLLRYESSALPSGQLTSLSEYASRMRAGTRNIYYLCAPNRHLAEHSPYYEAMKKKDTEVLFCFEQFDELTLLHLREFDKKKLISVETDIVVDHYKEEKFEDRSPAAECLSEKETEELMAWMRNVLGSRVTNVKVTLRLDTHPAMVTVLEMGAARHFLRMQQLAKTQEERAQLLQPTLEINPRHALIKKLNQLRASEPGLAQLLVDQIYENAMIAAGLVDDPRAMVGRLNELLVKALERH
Assay: ADP Glo assay of TRAP1 ATPase activity
Format: biochemical
Details: for pEC50: TRAP1 ATPase activation, 150 nM Trap1, 20 μM ATP, geometric mean, read-out: ADP GLO DRC: GeoMean EC50; for Emax: read-out: ADP GLO DRC: Mean Emax
Protocol: Potency of test compounds to modulate the ATPase activity of TRAP1 enzyme was evaluated using ADP Glo assay. The assay is based on quantification of the ADP generated from ATP in the ATPase reaction. The assay is performed in two steps: first, after the ATPase reaction, an equal volume of ADP-Glo™ Reagent is added to terminate the ATPase reaction and deplete the remaining ATP. Second, the Kinase Detection Reagent is added to simultaneously convert ADP to ATP and allow the newly synthesized ATP to be measured using a luciferase/luciferin reaction.
All the assays were carried out in a 384-well Proxiplate. The buffer used was 25 mM Pipes pH-7.5, 40 mM KCl, 0.05 mM MgCl2, 0.025% BSA, 0.316 mM EGTA, 0.003% Empigen, 0.01% Igepal. 150 nM Trap1 enzyme was incubated with various concentrations of the test compound (0.79 μM-100 μM) at 37° C. for 30 mins (except in blank wells). 20 μM ATP was added to each well to start the reaction. The plate was spun for 1 min at 1200 rpm and then incubated at 37° C. for 60 mins. 5 μl of ADP Glo reagent was added to all the wells and spun the plate for 1 min at 1200 rpm and kept it on a shaker at ambient temperature for 60 mins. 10 μl of kinase detection mix was added to all the wells and the plate was read for Luminescence at 495 nm. The amount of ADP released was estimated from ATP/ADP standard curve generated at the same experimental conditions. Emax (Maximal percent activation) and EC50 (concentration for half maximal activation) were estimated by fitting the dose response data to a sigmoidal curve fitting equation using Graphpad Prism software V. 8.

Structure (SMILES)	pEC50	Emax
COc1ccc(NC(=O)c2cc(Cl)ncc2C(F)(F)F)cc1S(=O)(=O)Nc1c(C)cccc1C [Compound 1274]	4.00 to 4.70	123 to 159%
CCn1nc(C(C)C)cc1C(=O)Nc1ccc(OC)c(S(=O)(=O)Nc2c(C)cccc2C)c1 [Compound 1093]	> 5.00	200 to 300%
COc1ccc(NC(=O)c2cocn2)cc1S(=O)(=O)Nc1ccc(Cl)cc1 [Compound 1961]	4.00 to 4.70	160 to 199%
O=C(Nc1ccc(F)c(S(=O)(=O)Nc2ccc(Cl)cc2)c1)c1nccnc1C(F)(F)F [Compound 710]	4.70 to 5.00	123 to 159%
O=C(Nc1ccc(F)c(S(=O)(=O)Nc2ccc(Cl)cc2)c1)c1scnc1C1CC1 [Compound 724]	4.70 to 5.00	160 to 199%
COc1ccc(NC(=O)c2cnn(Cc3ccccc3)c2)cc1S(=O)(=O)Nc1c(C)cccc1C [Compound 1068]	> 5.00	200 to 300%
COc1cc(C#N)cc(C(=O)Nc2ccc(OC)c(S(=O)(=O)Nc3c(C)cccc3C)c2)c1 [Compound 1090]	> 5.00	160 to 199%
COc1ccc(NC(=O)c2cnc(-c3cccs3)[nH]2)cc1S(=O)(=O)Nc1ccc(Cl)cc1 [Compound 1938]	> 5.00	200 to 300%
COc1ccc(NC(=O)c2cnn3cccnc23)cc1S(=O)(=O)Nc1c(C)cccc1C [Compound 1147]	4.00 to 4.70	200 to 300%
COc1ccc(NC(=O)c2ccc3nc(C)sc3c2)cc1S(=O)(=O)Nc1c(C)cccc1C [Compound 1231]	4.70 to 5.00	> 300%
Cc1cc(Cl)nc(Cl)c1C(=O)Nc1ccc(F)c(S(=O)(=O)Nc2ccc(Cl)cc2)c1 [Compound 691]	4.00 to 4.70	123 to 159%
COc1ccc(NC(=O)c2cc(-c3ccccc3)[nH]n2)cc1S(=O)(=O)Nc1c(C)cccc1C [Compound 1258]	> 5.00	200 to 300%
COc1ccc(NC(=O)c2ncccc2-c2ccccc2)cc1S(=O)(=O)Nc1c(C)cccc1C [Compound 1098]	4.70 to 5.00	200 to 300%
COc1ccc(NC(=O)c2coc(-c3ccccc3)n2)cc1S(=O)(=O)Nc1c(C)cccc1C [Compound 1301]	> 5.00	160 to 199%
Cc1nc(C(=O)Nc2ccc(F)c(S(=O)(=O)Nc3ccc(Cl)cc3)c2)nn1-c1ccc(F)cc1 [Compound 835]	4.70 to 5.00	123 to 159%
COc1ccc(NC(=O)c2cc(F)cc(Br)c2C)cc1S(=O)(=O)Nc1c(C)cccc1C [Compound 1065]	> 5.00	123 to 159%
CCc1ncsc1C(=O)Nc1ccc(OC)c(S(=O)(=O)Nc2c(C)cccc2C)c1 [Compound 1137]	4.00 to 4.70	160 to 199%
COc1ccc(NC(=O)c2cccnc2-c2ccc(C)cc2)cc1S(=O)(=O)Nc1c(C)cccc1C [Compound 1045]	4.70 to 5.00	123 to 159%
CCOc1c(F)c(F)cc(C(=O)Nc2ccc(OC)c(S(=O)(=O)Nc3c(C)cccc3C)c2)c1F [Compound 1145]	> 5.00	123 to 159%
COc1ccc(NC(=O)c2cccc(Cc3ccc(F)cc3)c2)cc1S(=O)(=O)Nc1c(C)cccc1C [Compound 1036]	> 5.00	123 to 159%
Cc1cc(C(=O)Nc2ccc(F)c(S(=O)(=O)Nc3ccc(Cl)cc3)c2)c2c(C)noc2n1 [Compound 736]	4.00 to 4.70	200 to 300%
COc1ccc(NC(=O)c2cccc3nc(C)sc23)cc1S(=O)(=O)Nc1c(C)cccc1C [Compound 1017]	> 5.00	200 to 300%
COc1ccc(NC(=O)c2cc3ccccc3[n+](C)c2)cc1S(=O)(=O)Nc1c(C)cccc1C [Compound 1356, 3-((3-(N-(2,6-dimethylphenyl)sulfamoyl)-4-methoxyphenyl)carbamoyl)-1-methylquinolin-1-ium]	4.00 to 4.70	160 to 199%
Cn1cnc2cc(C(=O)Nc3ccc(F)c(S(=O)(=O)Nc4ccc(Cl)cc4)c3)ccc2c1=O [Compound 1256]	4.00 to 4.70	123 to 159%
COc1ccc(NC(=O)c2ccc(F)c(-c3c(F)cccc3F)n2)cc1S(=O)(=O)Nc1c(C)cccc1C [Compound 1033]	> 5.00	160 to 199%

Structure (SMILES)	pEC50	Emax
CCOc1cc(OCC)cc(C(=O)Nc2ccc(OC)c(S(=O)(=O)Nc3c(C)cccc3C)c2)c1 [Compound 1117]	> 5.00	123 to 159%
COc1ccc(NC(=O)c2ncc(-c3ccccc3)o2)cc1S(=O)(=O)Nc1c(C)cccc1C#N [Compound 1357]	4.70 to 5.00	160 to 199%
COc1cc(C(=O)Nc2ccc(F)c(S(=O)(=O)Nc3ccc(Cl)cc3)c2)cc(Cl)c1OC [Compound 775]	4.70 to 5.00	123 to 159%
O=C(Nc1ccc(F)c(S(=O)(=O)Nc2ccc(Cl)cc2)c1)c1ccccc1C(=O)c1ccccc1 [Compound 681]	> 5.00	160 to 199%
COc1ccc(NC(=O)c2ccc(-c3ccccc3C(F)(F)F)o2)cc1S(=O)(=O)Nc1c(C)cccc1C [Compound 1162]	> 5.00	123 to 159%
COc1ccc(NC(=O)c2ccc3cn(C)nc3c2)cc1S(=O)(=O)Nc1c(C)cccc1C [Compound 1362]	4.70 to 5.00	200 to 300%
COc1ccc(NC(=O)c2ncc(-c3cc(F)c(F)c(F)c3)o2)cc1S(=O)(=O)Nc1c(C)csc1C [Compound 2519]	4.00 to 4.70	123 to 159%
COc1ccc(NC(=O)c2cccnc2-c2cc(F)cc(F)c2)cc1S(=O)(=O)Nc1c(C)cccc1C [Compound 1096]	4.70 to 5.00	123 to 159%
COc1ccc(NC(=O)c2cc(F)ccc2OC(F)(F)F)cc1S(=O)(=O)Nc1c(C)cccc1C [Compound 1092]	> 5.00	160 to 199%
COc1ccc(NC(=O)c2ccc3c(c2)CCCO3)cc1S(=O)(=O)Nc1c(C)cccc1C [Compound 1121]	> 5.00	160 to 199%
COc1ccc(NC(=O)c2cc(Br)cnc2C)cc1S(=O)(=O)Nc1c(C)cccc1C [Compound 1062]	4.00 to 4.70	160 to 199%
COc1ccc(NC(=O)c2cc3cnccc3s2)cc1S(=O)(=O)Nc1c(C)cccc1C [Compound 1287]	4.00 to 4.70	123 to 159%
COc1ccc(NC(=O)c2ccc(C(F)(F)F)n2C)cc1S(=O)(=O)Nc1c(C)cccc1C [Compound 1013]	> 5.00	123 to 159%
COc1ccc(NC(=O)c2onc3c2CCCC3)cc1S(=O)(=O)Nc1c(C)cccc1C [Compound 1056]	4.00 to 4.70	123 to 159%
Cc1nc2cc(C(=O)Nc3ccc(F)c(S(=O)(=O)Nc4ccc(Cl)cc4)c3)ccc2n1-c1ccccc1 [Compound 735]	> 5.00	123 to 159%
CCOc1ncccc1C(=O)Nc1ccc(F)c(S(=O)(=O)Nc2ccc(Cl)cc2)c1 [Compound 704]	4.70 to 5.00	200 to 300%
COc1ccc(NC(=O)c2ccc3c(c2)C2CCCS2(=O)=N3)cc1S(=O)(=O)Nc1c(C)cccc1C (centres unmarked) [Compound 1016]	4.00 to 4.70	200 to 300%
Cn1ncc(C(=O)Nc2ccc(F)c(S(=O)(=O)Nc3ccc(Cl)cc3)c2)c1-n1cccc1 [Compound 817]	4.00 to 4.70	160 to 199%
COc1ccc(NC(=O)c2ccncc2-c2ccccc2)cc1S(=O)(=O)Nc1c(C)cccc1C [Compound 1267]	4.00 to 4.70	123 to 159%
COc1ccc(NC(=O)c2ccn(-c3ccccc3)n2)cc1S(=O)(=O)Nc1c(C)cccc1C [Compound 1071]	4.70 to 5.00	200 to 300%
COc1ccc(NC(=O)c2cnc(-c3ccsc3)[nH]2)cc1S(=O)(=O)Nc1ccc(Cl)cc1 [Compound 1482]	> 5.00	160 to 199%
COc1ccc(NC(=O)c2cc(C(C)C)on2)cc1S(=O)(=O)Nc1c(C)cccc1C [Compound 1032]	> 5.00	200 to 300%
COc1ccc(NC(=O)c2ccc3c(=O)n(C)cnc3c2)cc1S(=O)(=O)Nc1c(C)cccc1C [Compound 1124]	4.70 to 5.00	200 to 300%
COc1ccc(NC(=O)c2ccc3nccnc3c2)cc1S(=O)(=O)Nc1c(C)cccc1C [Compound 1063]	4.00 to 4.70	> 300%
